From US20210332161A1, “CHLORINATED DERIVATIVE OF HYALURONIC ACID, METHOD OF PREPARATION THEREOF, A COMPOSITION CONTAINING THE DERIVATIVE, AND USE THEREOF” (CONTIPRO A.S., priority 2018, published 2021) come the findings set out here.

Values joined by “and” are separate entries in the source; they are usually repeats but may differ in a detail not shown here. Identical values can stand only once.

The nature of data set [1]: Stability of hyaluronan chloramide on standing (DS by NMR). It is filed as physicochemical. As to conditions: initial DS 85%. As for the experimental part:
5 g of hyaluronan (Mw 2200 kg·mol^−1) were dissolved in 250 ml of distilled water. Subsequently, 2 ml of acetic acid were added and the solution was stirred at the temperature of 20° C. for 15 minutes. Then, a sodium salt of dichloroisocyanuric acid in the amount of 3.2 g (1 eq.) was added. Then, the mixture was stirred at a temperature of 20° C. for 48 hours. Subsequently, the mixture was precipitated by 2.5 litres of isopropanol and filtered. The solid portion was washed with 2 litres of isopropanol, whereupon it was vacuum dried for 20 hours. DS 85% (determined from NMR). The NMR solution (7 mg of the product in 0.7 ml of D2O) was measured after another 5 days of standing at 20° C. The DS value was determined as 84%. The solid portion in the form of powder was let stand at 20° C. for 100 days and after that the sample was dissolved in D2O. The DS value was determined as 84%.

Data set [2] concerns CVB3 (Nancy). In words: Testing of antiviral activity based on the plaque reduction. The conditions noted are these: for PFU on PD, Average: average of 5 repeats; for PFU on PD, Average / PFU on PD: VERO cells; for PFU on PD: single Petri dishes (5 repeats), 5 hours incubation, listed as HA chloramide. The class given is cell-based. The procedure: (§1) Number of repeats −5, tested substance prepared according to Example 19, virus subject to testing: CVB3 (Nancy) in the concentration of 3×10E7, 5 PFU/ml, VERO cellular substrate
(§2) After having been subject to 10^7-fold dilution in the volume of 1.5 ml, the virus was adsorbed on the cell substrate in Petri dishes for 30 minutes. The negative control contained PBS without viruses. Afterwards, the virus was removed by suction and the cells were interlayered by the tested substance (or by HA and PBS contained in the negative control materials), incubation at 37° C. and in the presence of 5% of CO2, for 5 hours. The cells were washed with PBS and covered by a layer of a medium containing EMEM supplemented with 5% of inactivated FBS and 0.75% of agarose. The incubation in an environment containing 5% of CO2 at 37° C. for 4 days. Subsequently, the medium was removed, the cells were stained by a crystal violet dye and the counts of plaques were determined. During the test, the antiviral activity was proportional to the reduction of the number of plaques.

Data set [3] has as its system VERO cellular substrate. As to the kind of experiment: Plaque test groups without virus (examination of the cells / of toxicity). It is filed as cell-based, Cercopithecus aethiops. The conditions noted are these: 1% in PBS, no virus. As for the experimental part:
as §1, §2

Where [4] appears, read: single Petri dishes (5 repeats).

Take Hyaluronan Chloramide [Example 16]: in data set [1] (7 mg of product in 0.7 ml D2O, another 5 days of standing at 20° C.), the “DS value of the NMR solution after standing” value is recorded as 84%. In data set [1] (powder let stand at 20° C. for 100 days, then dissolved in D2O), the “DS value of the solid powder after standing” value was found to be 84%.
In the case of Hyaluronan Chloramide [Example 19], in data set [2] (0.1% in PBS), the “PFU on PD, Average” value stood at 7.8 PFU; the “PFU on PD” value is 5 PFU and 7 PFU and 10 PFU and 8 PFU and 9 PFU. Also, in data set [2] (0.5% in PBS), the “PFU on PD, Average” value is 7.2 PFU; the “PFU on PD” value is 8 PFU and 5 PFU and 7 PFU. Moreover, the “PFU on PD, Average” value in data set [2] (1% in PBS) was determined as 2.6 PFU. The “inhibition of the viral growth compared to the standard with HA” value in data set [2] (Tests 1, 2 and 3 (0.1, 0.5, 1% in PBS), more efficient with increasing concentration) is “inhibition of the viral growth”. In addition, in data set [3] (average of 5 repeats), the “PFU on PD, Average, Examination of the cells with HA” value is reported as 0 PFU and the “PFU on PD, Average, Examination of toxicity” value was found to be 0 PFU. For the same substance, in data set [3] (setting [4]), the “PFU on PD, Examination of the cells with HA” value was determined as 0 PFU and the “PFU on PD, Examination of toxicity” value is listed as 0 PFU.
For the substance “Hyaluronic acid [HA, reference compound]”, the “PFU on PD, Average” value in data set [2] (1% in PBS) was 10.4 PFU.
